Assay [1] concerns mouse primary cultured motor neurons. Kind of assay: Neurite outgrowth action in mono-culture of motor neurons. Format: cell-based. To be noted: total protrusion length on day 4 after treatment, versus control (Dunnett's test). As to the method: In a mono-culture system of mouse primary cultured motor neurons, the neurite outgrowth action of a sterol C14-reductase inhibitor (TM7SF2 inhibitor) and FF-MAS was evaluated. The mouse primary cultured motor neurons were prepared from an embryonic day 13 mouse fetus. In other words, a mouse on day 13 of gestation was subjected to cervical dislocation and euthanized, and the abdomen was incised to extract the fetus. The fetus was decapitated, and then the spinal cord was extracted under a stereomicroscope. The spinal cord was treated with HBSS containing 0.25% trypsin at 37° C. for 15 minutes, then the supernatant was removed, washing was performed 3 times with HBSS, 2 mL of a dispersion solution was added, and pipetting was repeated with a tapered Pasteur pipette to prepare a cell suspension. The cell suspension was centrifuged (200 g, 5 minutes), 2 mL of a motor neuron medium was added to the sediment, the suspension was resuspended, and the number of cells was measured. The mouse primary cultured motor neurons suspended in the motor neuron medium were seeded on a 96-well imaging plate coated with poly-D-lysine at 1.5×10^4 cells/100 μL/well. […] The neurite length was evaluated by immunostaining the nuclei and protrusions of nerve cells. […] As primary antibodies, Anti-Neuron-specific beta-III Tubulin Antibody (R&D Systems, Inc., MAB1195, 1/1,000 dilution) and Anti-NeuN Antibody (Merck Millipore, ABN78, 1/500 dilution) diluted with a blocking solution were added in an amount of 50 and the plate was allowed to stand at 4° C. overnight. After washing 3 times with 100 to 150 μL/well of PBS, 50 μL/well of Alexa Fluor 647 goat anti-mouse IgG (H+L) (Invitrogen, A-21236, 1/1,000 dilution) and Alexa Fluor 488 goat anti-rabbit IgG (H+L) (Invitrogen, A-11034, 1/1,000 dilution) as secondary antibodies were added, and the plate was allowed to stand at room temperature for 1 hour while being shielded from light, and then washed 3 times with 100 to 150 μL/well of PBS. The stained plate was photographed using the Opera Phenix high-throughput high-content imaging system ([…] Japan). Images of 5 fields per well were acquired using an Alexa Fluor 647 wavelength filter for photographing neurites and an Alexa Fluor 488 wavelength filter for photographing nuclei of nerve cells, nuclei of nerve cells and neurites per field were analyzed by an analysis program, and the sum of neurite lengths per field was calculated. Taking the mean of the sum of neurite lengths in the vehicle group (0.03% DMSO or 0.2% ethanol) evaluated for each plate as 100%, the sum of neurite lengths in the sterol C14-reductase inhibitor (TM7SF2 inhibitor) and FF-MAS treatment groups was calculated.

Assay [2] has as its system co-culture of mouse myoblast cell line C2C12 cells into which human mutant SOD1 (G93A) was introduced and mouse primary cultured motor neurons. Kind of assay: Neuromuscular junction formation in co-culture, α-bungarotoxin-positive area. Format: cell-based. As to conditions: for concentration from which the positive area of the neuromuscular junction was significantly increased: α-bungarotoxin-positive area on day 11 after treatment, versus control (Dunnett's test); for positive area of the neuromuscular junction: day 11.

The subject of assay [3] is rat primary Schwann cells. Kind of assay: Schwann cell differentiation-promoting action (MAG expression). Format: cell-based. To be noted: day 3 after treatment, versus control (Dunnett's test). The method, then: The Schwann cell differentiation-promoting action of FF-MAS was evaluated in a culture system of rat primary Schwann cells. In other words, neonatal rats aged 0 to 2 days after birth were decapitated, then sterilized by being immersed in ethanol for disinfection, moved to a clean bench, and then washed with a recovery medium (Dulbecco's modified Eagle medium (Sigma Aldrich, product number D5921) without phenol red containing 1 vol % Antibiotic-Antimycotic (Antibiotic-Antimycotic 100×, Thermo Fisher Scientific, Inc., product number 15240062)). Thereafter, the dorsal root ganglion was extracted under a microscope and recovered in a 15 mL tube filled with the recovery medium. The recovered tube was centrifuged at 400 g for 3 minutes at room temperature, and the supernatant was removed. […] The number of cells in the filtered cell suspension was counted and adjusted to 2.0×10^5 cells/mL, and then the cells were seeded on a 96-well plate coated with poly-D-lysine at 100 μL/well each, and statically cultured in a CO2 incubator under conditions of 5% CO2, 95% air, and 37° C. […] The Schwann cell differentiation-promoting action was evaluated on the basis of the expression level of myelin-associated glycoprotein (hereinafter referred to as MAG). […]

For assay [4], the system named is mouse myoblast cell line C2C12 cells into which human mutant SOD1 (G93A) was introduced. Kind of assay: FF-MAS and 14-dehydrozymosterol accumulation action in myotube-like differentiated C2C12 cells (LC/APCI-MS/MS). Format: cell-based. As to conditions: for intracellular FF-MAS concentration: cells recovered at 3 and 24 hours after treatment, DMSO treatment group below the detection limit; for concentration of 14-dehydrozymosterol: same treatment as for FF-MAS, cells recovered at 3 and 24 hours. As to the method: After mouse myoblast cell line C2C12 cells into which human mutant SOD1 (G93A) was introduced were myotube-like differentiated, the cells were treated with sterol C14-reductase inhibitors (TM7SF2 inhibitors) (amorolfine, ziprasidone, and ifenprodil), and the fluctuation of sterol in the cells was evaluated. In other words, in order to differentiate C2C12 cells into myotubes, C2C12 cells that had been cultured using 15% FBS-DMEM (Dulbecco's modified Eagle's medium containing 15% fetal bovine serum and 100 units/mL penicillin-100 μg/mL streptomycin) were cultured for 2 days in a culture flask after the medium was replaced with a low-serum medium (Dulbecco's modified Eagle's medium containing 0.5% FBS, 1% insulin-transferrin-selenium, and 100 units/mL penicillin-100 μg/mL streptomycin). Then, in order to remove proliferating undifferentiated cells, the medium was replaced with a low-serum medium containing 10 μmol/L arabinocytidine (AraC), and the cells were further cultured for 2 days. The myotube-like differentiated C2C12 cells were detached from the culture flask by treatment with 0.25% trypsin-1 mmol/L EDTA, and then the cells were seeded on a 3.5-cm culture dish coated with Matrigel at 2.4×10^5 cells/dish, and cultured for 3 days. After treatment with a sterol C14-reductase inhibitor (TM7SF2 inhibitor) or 0.03% DMSO, the cells were recovered at 3 and 24 hours. After removing the medium and washing with phosphate buffered saline (PBS), the cells were recovered with 200 µL of 90% methanol containing 1 μmol/L d7-cholesterol (internal standard substance), and further recovered again with 200 μL of a 90% methanol solution, so that a total of about 400 μL of a cell recovery solution was obtained. Then, 160 μL of this cell recovery solution was pretreated by a solid-phase extraction method using OASIS PRiME HLB glution Plate, and a sample eluted with methanol/IPA (1 : 1) was measured by high-performance liquid chromatography/atmospheric pressure chemical ionization-tandem mass spectrometry (LC/APCI-MS/MS), and each concentration in the recovery solution was calculated by an internal standard calibration curve method.

Assay [5] relates to myasthenia gravis model rat. Kind of assay: Rat myasthenia gravis model (mAb35 induced), grip strength. Type of assay: in vivo. As to conditions: grip strength at 96 hours after induction by mAb35; repeated oral administration once a day; versus control (Dunnett's test). The method, then: The efficacy of ifenprodil, which is a sterol C14-reductase inhibitor (TM7SF2 inhibitor), in a rat myasthenia gravis model was evaluated. The rat myasthenia gravis model is a model in which a neuromuscular junction (NMJ) is impaired and motor functions such as grip strength are declined by treating a rat with mAb35, which is an antibody against an anti-acetylcholine receptor. First, an anti-acetylcholine receptor antibody mAb35 (Bio X Cell, product number BE0123) as an inducing agent was intraperitoneally administered to a 5-week-old female LEW/CrlCrlj rat at a concentration of 0.29 mg/mL and a volume of 5 mL/kg to induce a pathological condition. Ifenprodil (MedChemExpress, product number HY-12882A) as a test substance was dissolved in water for injection (Otsuka Pharmaceutical Factory, Inc.) containing 2% DMSO so that the concentration is 0.1, 0.3, and 1 mg/mL to prepare an administration solution. Ifenprodil was repeatedly orally administered once a day at doses of […] from 9 hours after induction by administration of mAb35 to 4 days after induction as the evaluation end date. […] The grip strength was measured on the day before induction (pre-value). […] For quantitative evaluation of the grip strength, a grip strength measuring device Traction Meter (BrainScience idea Co., Ltd.) was used.

Assay [6] relates to C2C12 cells in which both human mutant SOD1 (G93A) and a human TM7SF2 gene were overexpressed and mouse primary motor neurons. Kind of assay: Neuromuscular junction formation in co-culture, C2C12 overexpressing human mutant SOD1 (G93A) and human TM7SF2. As to conditions: same concentration range (0.1, 0.3, 1, and 3 μmol/L), day 11. Format: cell-based.
Assay [7] concerns C2C12 cells in which human mutant SOD1 (G93A) was overexpressed alone and mouse primary motor neurons. Description: Neuromuscular junction formation in co-culture, C2C12 overexpressing human mutant SOD1 (G93A) alone. Type of assay: cell-based. As to conditions: day 11.

Turning to `CC(C)=CCC[C@@H](C)[C@H]1CC=C2C3=C(CC[C@@]21C)[C@@]1(C)CC[C@H](O)C(C)(C)[C@@H]1CC3` [FF-MAS, 4,4-dimethyl-5alpha-cholesta-8,14,24-trien-3beta-ol], in assay [1], the “concentration from which the sum of neurite lengths was significantly increased” value came out at 1.1 µmol/L. Also, the “concentration from which the positive area of the neuromuscular junction was significantly increased” value in assay [2] came to 10 µmol/L. Further, in assay [3], the “concentration from which the value of MAG/number of cell nuclei was significantly increased” value was determined as 3 µmol/L.

For `CC(C)=CCC[C@@H](C)[C@H]1CC[C@H]2C3=C(CC[C@]12C)[C@@]1(C)CC[C@H](O)C[C@@H]1CC3` [zymosterol], in assay [2] (added at 0.05 to 10 μmol/L), the “positive area of the neuromuscular junction” value is listed as “no significant increase”.

Take `CC(C)=CCC[C@@H](C)[C@H]1CC=C2C3=C(CC[C@@]21C)[C@@]1(C)CC[C@H](O)C[C@@H]1CC3` [14-dehydrozymosterol, 5alpha-cholesta-8,14,24-trien-3beta-ol]: the “concentration from which the positive area of the neuromuscular junction was significantly increased” value in assay [2] is 10 µmol/L.

Turning to `COc1ccc(S(=O)(=O)N2CCC(N3CCC(C)CC3)CC2)cc1` [TASIN-1], the “positive area of the neuromuscular junction” value in assay [2] is on record as “no significant increase”.

Consider `O=C1Cc2cc(CCN3CCN(c4nsc5ccccc45)CC3)c(Cl)cc2N1` [ziprasidone], for which, in assay [4], the “intracellular FF-MAS concentration” value is given as “increase” and the “concentration of 14-dehydrozymosterol” value was “increase”. Further, the “concentration from which the sum of neurite lengths was significantly increased” value in assay [1] worked out at 1 µmol/L. The “concentration from which the positive area of the neuromuscular junction was significantly increased” value in assay [2] was found to be 3 µmol/L.

For the compound `CC(C(O)c1ccc(O)cc1)N1CCC(Cc2ccccc2)CC1` (stereo not shown) [ifenprodil], in assay [4], the “intracellular FF-MAS concentration” value is listed as “increase” and the “concentration of 14-dehydrozymosterol” value is given as “increase”. In addition, the “concentration from which the sum of neurite lengths was significantly increased” value in assay [1] was determined as 1 µmol/L. The “concentration from which the positive area of the neuromuscular junction was significantly increased” value in assay [2] was determined as 1 µmol/L. For the same compound, the “dose from which the grip strength was significantly improved” value in assay [5] is listed as 3 mg/kg.

Regarding `CCC(C)(C)c1ccc(CC(C)CN2C[C@@H](C)O[C@@H](C)C2)cc1` (stereo partly shown) [amorolfine], the “positive area of the neuromuscular junction” value in assay [6] is on record as “no increasing fluctuation”; in assay [7] (at 1 μmol/L), “significantly increased”; in assay [7] (at 3 mol/L) it was “significantly increased”. Further, in assay [4], the “intracellular FF-MAS concentration” value is given as “increase”. Also, the “concentration of 14-dehydrozymosterol” value in assay [4] is on record as “increase”. The “concentration from which the sum of neurite lengths was significantly increased” value in assay [1] amounted to 0.3 µmol/L. Besides, in assay [2], the “concentration from which the positive area of the neuromuscular junction was significantly increased” value is 0.3 µmol/L.

(Values after US20230181554A1, “AGENT FOR PROTECTING AND/OR REGENERATING NEUROMUSCULAR JUNCTION” (ONO PHARMACEUTICAL CO., LTD., priority 2020, published 2023).)
